Test results: patent publication US20160050920A1, “METHODS TO IMPROVE NODAL ROOTS” (Valent BioSciences Corporation, priority 2014, published 2016)

How the values were obtained:
Assay type in all cases: in vivo
Hybrid corn [1] = assay: Example 1: potted hybrid corn, newest nodal roots after GA3 foliar spray
Text: Hybrid corn seed was planted 3.8 centimeters (cm) deep on three separate dates in Miracle-Gro Potting Mix (Miracle-Grois a registered trademark owned by OMS Investments, Inc., Miracle-Gro Potting Mix is widely available at retail home improvement stores) in 2.5 gallon pots. The pots were filled with 0.007 cubic meters of potting mix. The seeds/plants were watered as needed. The second planting was 10 days after the first planting and the third planting was nine days after the second planting. The plants were treated with 0, 8.4 g ai/hectare, or 16.8 g ai/hectare of GA3 as formulated in RyzUp SmartGrass° (available from Valent BioSciences Corp.) using a TeeJet® 8002 VS spray tip on a manual sprayer set at 15 gallons per acre. Distilled water was used and non-ionic surfactant (0.25% v/v). The treatments were applied on the same day which was 28 days after the first planting (corn was at V6 stage), 18 days after the second planting (corn was at V3 or V4 stages), and 9 days after the third planting (corn was at V1 stage). Crop Heat Units are a way of calculating growth and are calculated on a daily basis, using the maximum (Tmax) and minimum (Tmin) daily air temperatures, measured from midnight to midnight, in degrees Celsius. The Crop Heat Unit (CHU) system uses the following equation which allows growers to more accurately predict the growth of crops compared to using calendar days: Tmax+Tmin÷2−Tbase, wherein Tbase is the base temperature for the crop. During this study, there were a few days following the treatments with temperatures exceeding 24 degrees Celsius and the nights dipped below 10 degrees Celsius. The week immediately following treatment, there was one day above 24 degrees Celsius, each night dipped below 10 degrees Celsius. […] The growth rate of corn also declines when temperatures are above 30 degrees Celsius. In this study, there was an average of 10 CHUs per day following treatment and a total of 83CHUs. The corn was harvested at 1, 2, and 3 weeks after treatment. The plants were washed and roots were separated from shoots.

Hybrid corn [2] = assay: Example 3: field study, root count of hybrid corn; details: 2.75 g ai/hectare at V4
Method: A field study was conducted in order to determine the effects of GA3 on root development. Hybrid corn seeds were planted and were treated when the corn was at the V4 stage of development sixteen days after planting. The treatments were 0 or 2.75g ai/hectare of GA3 as formulated in RyzUp SmartGrass® using a TeeJet® 8002 VS spray tips with a backpack sprayer set at 15 gallons per acre. Distilled water was used and non-ionic surfactant (0.25% v/v). The plants were then destructively harvested and their root count was evaluated.

Hybrid corn [3] = assay: Example 4: field study, number and dry weight of roots in two corn hybrids; parameters: Dry weight of nodes 1 to 3 / Dry weight of nodes 4 to 7 / Total dry weight: unit not given here
Method: Another field study was conducted in order to determine the effects of GA3 on root development. Two types of hybrid corn seeds were planted during the spring season. The plants were treated with 0 or 2.75g ai/hectare of GA3 as formulated in RyzUp SmartGrass® using a TeeJet° 8002 VS spray tip on a manual sprayer set at 15 gallons per acre. Distilled water was used and non-ionic surfactant (0.25% v/v). The treatments were applied when the corn was at the V4 stage of development. The plants were then destructively harvested 32 days after treatments and their number of roots, dry weight, and dry weight of nodal roots were evaluated.

[4] = Hybrid 1, 2.75 g ai/hectare at V4, 32 days after treatment
[5] = Hybrid 2, 2.75 g ai/hectare at V4, 32 days after treatment

C=C1C[C@]23C[C@@]1(O)CC[C@H]2[C@@]12C=C[C@H](O)[C@@](C)(C(=O)O1)[C@H]2[C@@H]3C(=O)O [GA3, gibberellic acid]
# of newest nodal roots exposed/6 plants (Hybrid corn [1]; 8.4 g ai/ha GA3): 29
# of newest nodal roots exposed/plant (Hybrid corn [1]; 8.4 g ai/ha GA3): 4.8
# of newest nodal roots exposed/plant with newest nodal roots present (Hybrid corn [1]; 8.4 g ai/ha GA3): 5.8
cm of newest nodal roots exposed/plant (Hybrid corn [1]; 8.4 g ai/ha GA3): 4.2 cm
cm of newest nodal roots exposed/plant with newest nodal roots (Hybrid corn [1]; 8.4 g ai/ha GA3): 5.0 cm
% of plants with newest nodal roots exposed (Hybrid corn [1]; 8.4 g ai/ha GA3, foliar spray): 83%
# of newest nodal roots exposed/6 plants (Hybrid corn [1]; 16.8 g ai/ha GA3): 33
# of newest nodal roots exposed/plant (Hybrid corn [1]; 16.8 g ai/ha GA3): 5.5
# of newest nodal roots exposed/plant with newest nodal roots present (Hybrid corn [1]; 16.8 g ai/ha GA3): 5.5
cm of newest nodal roots exposed/plant (Hybrid corn [1]; 16.8 g ai/ha GA3): 5.3 cm
cm of newest nodal roots exposed/plant with newest nodal roots (Hybrid corn [1]; 16.8 g ai/ha GA3): 5.3 cm
% of plants with newest nodal roots exposed (Hybrid corn [1]; 16.8 g ai/ha GA3, foliar spray): 100%
root count, Treated Compared to Untreated % of Control (Hybrid corn [2]; 1 day before treatment (baseline)): 100.2 % of Control
root count, Treated Compared to Untreated % of Control (Hybrid corn [2]; 4 days after treatment): 105.6 % of Control
root count, Treated Compared to Untreated % of Control (Hybrid corn [2]; 7 days after treatment): 105.5 % of Control
root count, Treated Compared to Untreated % of Control (Hybrid corn [2]; 13 days after treatment): 107.8 % of Control
Dry weight of nodes 1 to 3 (Hybrid corn [3]; [4]): 2.5
Dry weight of nodes 4 to 7 (Hybrid corn [3]; [4]): 14.4
Total dry weight (Hybrid corn [3]; [4]): 16.9
Total roots (Hybrid corn [3]; [4]): 53.2
Dry weight of nodes 1 to 3 (Hybrid corn [3]; [5]): 1.7
Dry weight of nodes 4 to 7 (Hybrid corn [3]; [5]): 10.1
Total dry weight (Hybrid corn [3]; [5]): 11.8
Total roots (Hybrid corn [3]; [5]): 39
